melting point [°C] | Structure (SMILES)
184 | Cn1cnc(COc2nn3c(-c4ccccc4F)nncc3c2-c2ccccc2F)n1 [Example 59, 3,7-bis(2-Fluorophenyl)-2-(1-methyl-1H-[1,2,4]triazol-3-ylmethoxy)pyrazolo[1,5-d][1,2,4]triazine]
188 | Cn1nncc1COc1nn2c(-c3ccccc3F)nncc2c1-c1ccccc1F [Example 60, 3,7-bis(2-Fluorophenyl)-2-(3-methyl-3H-[1,2,3]triazol-4-ylmethoxy)pyrazolo[1,5-d][1,2,4]triazine]
175 | Cn1cc(COc2nn3c(-c4ccccc4F)nncc3c2-c2ccccc2F)nn1 [Example 61, 3,7-bis(2-Fluorophenyl)-2-(1-methyl-1H-[1,2,3]triazol-4-ylmethoxy)pyrazolo[1,5-d][1,2,4]triazine]
197 | Cc1cccc(COc2nn3c(-c4ccccc4F)nncc3c2-c2ccccc2F)n1 [Example 62, 3,7-bis(2-Fluorophenyl)-2-(6-methylpyridin-2-ylmethoxy)pyrazolo[1,5-d][1,2,4]triazine]
146 | Fc1ccccc1-c1c(OCc2cccnc2)nn2c(-c3ccccc3F)nncc12 [Example 63, 3,7-bis(2-Fluorophenyl)-2-(pyridin-3-ylmethoxy)pyrazolo[1,5-d][1,2,4]triazine]
143 | Fc1ccccc1-c1c(OCc2ccncc2)nn2c(-c3ccccc3F)nncc12 [Example 64, 3,7-bis(2-Fluorophenyl)-2-(pyridin-4-ylmethoxy)pyrazolo[1,5-d][1,2,4]triazine]
66 | Fc1ccccc1-c1c(OCc2ncccc2OC2CCC2)nn2c(-c3ccccc3F)nncc12 [Example 65, 2-(3-Cyclobutyloxypyridin-2-ylmethoxy)-3,7-bis(2-fluorophenyl)-pyrazolo[1,5-d][1,2,4]triazine]
143 | COc1cccnc1COc1nn2c(-c3ccccc3F)nncc2c1-c1ccccc1F [Example 67, 3,7-bis(2-Fluorophenyl)-2-(3-methoxypyridin-2-ylmethoxy)pyrazolo[1,5-d][1,2,4]triazine]
77 | CCOc1cccnc1COc1nn2c(-c3ccccc3F)nncc2c1-c1ccccc1F [Example 68, 2-(3-Ethoxypyridin-2-ylmethoxy)-3,7-bis(2-fluorophenyl)pyrazolo[1,5-d][1,2,4]triazine]
69 | Cc1cccnc1COc1nn2c(-c3ccccc3F)nncc2c1-c1ccccc1F [Example 69, 3,7-bis(2-Fluorophenyl)-2-(3-methylpyridin-2-ylmethoxy)pyrazolo[1,5-d][1,2,4]triazine]
176 | Cc1csc(COc2nn3c(-c4ccccc4F)nncc3c2-c2ccccc2F)n1 [Example 71, 3,7-bis(2-Fluorophenyl)-2-(4-methylthiazol-2-ylmethoxy)pyrazolo[1,5-d][1,2,4]triazine]
154 | Cc1cnc(COc2nn3c(-c4ccccc4F)nncc3c2-c2ccccc2F)s1 [Example 72, 3,7-bis(2-Fluorophenyl)-2-(5-methylthiazol-2-ylmethoxy)pyrazolo[1,5-d][1,2,4]triazine]
212 | Fc1ccccc1-c1c(OCc2cscn2)nn2c(-c3ccccc3F)nncc12 [Example 73, 3,7-bis(2-Fluorophenyl)-2-(thiazol-4-ylmethoxy)pyrazolo[1,5-d][1,2,4]triazine]
179 | CC(C)n1ncnc1COc1nn2c(-c3ccccc3F)nncc2c1-c1ccccc1F [Example 74, 3,7-bis(2-Fluorophenyl)-2-(2-isopropyl-2H-[1,2,4]triazol-3-ylmethoxy)-pyrazolo[1,5-d][1,2,4]triazine]
210 | Fc1ccccc1-c1c(OCc2cccnn2)nn2c(-c3ccccc3F)nncc12 [Example 76, 3,7-bis(2-Fluorophenyl)-2-(pyridazin-3-ylmethoxy)pyrazolo[1,5-d][1,2,4]triazine]
189 | Fc1ccccc1-c1c(OCc2ccncn2)nn2c(-c3ccccc3F)nncc12 [Example 78, 3,7-bis(2-Fluorophenyl)-2-(pyrimidin-4-ylmethoxy)pyrazolo[1,5-d][1,2,4]triazine]

melting point [°C] | Structure (SMILES)
209 | Fc1ccccc1-c1c(OCc2cnc3ccccc3n2)nn2c(-c3ccccc3F)nncc12 [Example 79, 3,7-bis(2-Fluorophenyl)-2-(quinoxalin-2-ylmethoxy)pyrazolo[1,5-d][1,2,4]triazine]
148 | Cn1ncnc1COc1nn2c(-c3ccoc3)nncc2c1-c1ccccc1F [Example 80, 3-(2-Fluorophenyl)-7-(furan-3-yl)-2-(2-methyl-2H-[1,2,4]triazol-3-ylmethoxy)pyrazolo[1,5-d][1,2,4]triazine]
218 to 220 | Cn1c(COc2nn3c(-c4ccccc4F)nncc3c2-c2ccccc2F)nc2ccccc21 [Example 81, 3,7-bis(2-Fluorophenyl)-2-(1-methyl-1H-benzimidazol-2-ylmethoxy)pyrazolo[1,5-d][1,2,4]triazine]
208 to 209 | Fc1ccccc1-c1c(OCc2nc3ccccn3n2)nn2c(-c3ccccc3F)nncc12 [Example 82, 3,7-bis(2-Fluorophenyl)-2-([1,2,4]triazolo[1,5-a]pyridin-2-ylmethoxy)pyrazolo[1,5-d][1,2,4]triazine]
150 to 152 | Fc1ccccc1-c1c(OCc2nc3n(n2)CCCC3)nn2c(-c3ccccc3F)nncc12 [Example 83, 3,7-bis(2-Fluorophenyl)-2-(5,6,7,8-tetrahydro[1,2,4]triazolo[1,5-a]pyridin-2-ylmethoxy)pyrazolo[1,5-d][1,2,4]triazine]
179 to 180 | Fc1ccccc1-c1c(OCc2ncnn2CC(F)F)nn2c(-c3ccccc3F)nncc12 [Example 85, 2-[2-(2,2-Difluoroethyl)-2H-[1,2,4]triazol-3-ylmethoxy]-3,7-bis(2-fluorophenyl)pyrazolo[1,5-d][1,2,4]triazine]
172 to 173 | FCCn1ncnc1COc1nn2c(-c3ccccc3F)nncc2c1-c1ccccc1F [Example 86, 2-[2-(2-Fluoroethyl)-2H-[1,2,4]triazol-3-ylmethoxy]-3,7-bis(2-fluorophenyl)-pyrazolo[1,5-d][1,2,4]triazine]
155 to 157 | Cn1ncnc1COc1nn2c(-c3ccccc3Cl)nncc2c1-c1ccccc1F [Example 88, 7-(2-Chlorophenyl)-3-(2-fluorophenyl)-2-(2-methyl-2H-[1,2,4]triazol-3-ylmethoxy)pyrazolo[1,5-d][1,2,4]triazine]
97 to 99 | Cn1ncnc1COc1nn2c(C3CC3)nncc2c1-c1ccccc1F [Example 89, 7-Cyclopropyl-3-(2-fluorophenyl)-2-(2-methyl-2H-[1,2,4]triazol-3-ylmethoxy)pyrazolo[1,5-d][1,2,4]triazine]
183 | Cc1cc(COc2nn3c(-c4ccccc4F)nncc3c2-c2ccccc2F)nn1C [Example 90, 3,7-bis(2-Fluorophenyl)-2-(1,5-dimethyl-1H-pyrazol-3-ylmethoxy)-pyrazolo[1,5-d][1,2,4]triazine]
182 to 183 | CCn1ncnc1COc1nn2c(-c3ccccc3F)nncc2c1-c1ccco1 [Example 91, 2-(2-Ethyl-2H-[1,2,4]triazol-3-ylmethoxy)-7-(2-fluorophenyl)-3-(furan-2-yl)pyrazolo[1,5-d][1,2,4]triazine]
190 to 192 | CCn1ncnc1COc1nn2c(-c3ccccc3F)nncc2c1-c1cccs1 [Example 92, 2-(2-Ethyl-2H-[1,2,4]triazol-3-ylmethoxy)-7-(2-fluorophenyl)-3-(thien-2-yl)pyrazolo[1,5-d][1,2,4]triazine]
187 to 193 | CCn1ncnc1COc1nn2c(-c3ccccc3F)nncc2c1-c1ccsc1 [Example 93, 2-(2-Ethyl-2H-[1,2,4]triazol-3-ylmethoxy)-7-(2-fluorophenyl)-3-(thien-3-yl)pyrazolo[1,5-d][1,2,4]triazine]
157 to 163 | Cn1ncnc1COc1nn2c(-c3ccccc3F)nncc2c1-c1cccc(-c2cccnc2)c1 [Example 95, 7-(2-Fluorophenyl)-2-(2-methyl-2H-[1,2,4]triazol-3-ylmethoxy)-3-[3-(pyridin-3-yl)phenyl]pyrazolo[1,5-d][1,2,4]triazine]
218 to 219 | Cn1ncnc1COc1nn2c(-c3ccccc3F)nncc2c1I [Example 96, 7-(2-Fluorophenyl)-3-iodo-2-(2-methyl-2H-[1,2,4]triazol-3-ylmethoxy)-pyrazolo[1,5-d][1,2,4]triazine]
194 to 196 | Cn1ncnc1COc1nn2c(-c3ccccc3F)nncc2c1-c1cccc(C#N)c1 [Example 97, 3-(3-Cyanophenyl)-7-(2-fluorophenyl)-2-(2-methyl-2H-[1,2,4]triazol-3-ylmethoxy)pyrazolo[1,5-d][1,2,4]triazine]

Source: US6476030B1, “Pyrazolo-triazine derivatives as ligands for GABA receptors” (Merck Sharp & Dohme Ltd., priority 1998, dated 2002)
